According to patent publication US12180187B2, “1-phenyl-5-azinylpyrazolyl-3-oxyalkyl acids and their use for controlling unwanted plant growth” (BAYER AKTIENGESELLSCHAFT, priority 2019, dated 2024):

Assays:
VERPE = experiment: Post-emergence action against VERPE, 1.28 kg/ha; assay type: in vivo, Veronica persica; conditions: dosage 1280 g/ha, visual rating about 3 weeks after treatment vs untreated controls (100% = plants died); for pest or weed control at 1280 g/ha: Veronica persica, 504 h
How it was run: (§1)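 Visual rating against untreated plants about 3 weeks after spraying gives % activity, where 0% means like controls and 100% means plants died. Plants were treated post-emergence at the one-leaf stage with compound formulated as wettable powder or emulsion concentrate, applied at 600 L water/ha plus 0.5% additive.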

AVEFA = experiment: Post-emergence action at 320 g/ha against AVEFA; assay type: in vivo; conditions: visual rating about 3 weeks after treatment vs untreated controls; for pest or weed control at 320 g/ha: Avena fatua, 504 h
How it was run: (§2)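 Weeds were sown in sandy loam, grown in a greenhouse and sprayed at the one-leaf stage, 2 to 3 weeks after sowing, with WP or EC formulations as aqueous suspension or emulsion plus 0.5% additive at 600 l/ha water. Activity was rated visually after about 3 weeks against untreated controls (100% = plants dead, 0% = like control).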

AMARE [1] = experiment: Post-emergence action at 320 g/ha against AMARE; assay type: in vivo, Amaranthus retroflexus; conditions: visual rating about 3 weeks after treatment vs untreated controls; for pest or weed control at 320 g/ha: Amaranthus retroflexus, 504 h
How it was run: as §2

DIGSA [2] = experiment: Post-emergence action at 320 g/ha against DIGSA; assay type: in vivo, Digitaria sanguinalis; conditions: dosage 320 g/ha, visual rating about 3 weeks after treatment vs untreated controls (100% = plants died); for pest or weed control at 320 g/ha: Digitaria sanguinalis, 504 h
How it was run: as §2

LOLRI = experiment: Pre-emergence action against LOLRI, 1280 g/ha; assay type: in vivo, Lolium rigidum; conditions: visual scoring after about 3 weeks vs untreated controls, 100% = plants have died, 0% = like control plants; for pest or weed control at 1280 g/ha: Lolium rigidum, 504 h
How it was run: (§3)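 Soil-surface application after sowing, before emergence: WP or EC formulations in water with 0.5% additive, 600 litres per hectare, onto sandy loam pots. Damage rated visually in % relative to untreated plants after roughly 3 weeks in a greenhouse.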

ECHCG = experiment: Post-emergence action at 320 g/ha against ECHCG; assay type: in vivo, Echinochloa crus-galli; conditions: dosage 320 g/ha, visual rating about 3 weeks after treatment vs untreated controls (100% = plants died)
How it was run: as §2

AMARE [3] = experiment: Post-emergence action against AMARE, 1.28 kg/ha; assay type: in vivo, Amaranthus retroflexus; conditions: dosage 1280 g/ha, visual rating about 3 weeks after treatment vs untreated controls (100% = plants died)
How it was run: as §1

POLCO = experiment: Post-emergence action at 320 g/ha against POLCO; assay type: in vivo, Fallopia convolvulus (Polygonum convolvulus); conditions: visual rating about 3 weeks after treatment vs untreated controls; for pest or weed control at 320 g/ha: Fallopia convolvulus, 504 h
How it was run: as §2

DIGSA [4] = experiment: Pre-emergence action against DIGSA, 1280 g/ha; assay type: in vivo, Digitaria sanguinalis; conditions: visual scoring after about 3 weeks vs untreated controls, 100% = plants have died, 0% = like control plants
How it was run: as §3

STEME = experiment: Post-emergence action against STEME, 1.28 kg/ha; assay type: in vivo, Stellaria media; conditions: dosage 1280 g/ha, visual rating about 3 weeks after treatment vs untreated controls (100% = plants died)
How it was run: as §1

SETVI = experiment: Post-emergence action against SETVI, 1.28 kg/ha; assay type: in vivo, Setaria viridis; conditions: dosage 1280 g/ha, visual rating about 3 weeks after treatment vs untreated controls
How it was run: as §1

KCHSC [5] = experiment: Pre-emergence action against KCHSC, 1280 g/ha; assay type: in vivo, Bassia scoparia; conditions: scored visually after about 3 weeks vs untreated controls (100% = plants have died)
How it was run: as §3

KCHSC [6] = experiment: Post-emergence action against KCHSC, 1.28 kg/ha; assay type: in vivo, Bassia scoparia; conditions: dosage 1280 g/ha, visual rating about 3 weeks after treatment vs untreated controls (100% = plants died)
How it was run: as §1

ABUTH = experiment: Pre-emergence action against ABUTH, 1280 g/ha; assay type: in vivo, Abutilon theophrasti; conditions: scored visually after about 3 weeks vs untreated controls (100% = plants have died)
How it was run: as §3

SMILES | pest or weed control at 1280 g/ha (VERPE) [%] | pest or weed control at 320 g/ha (AVEFA) [%] | pest or weed control at 320 g/ha (AMARE [1]) [%] | pest or weed control at 320 g/ha (DIGSA [2]) [%] | pest or weed control at 1280 g/ha (LOLRI) [%] | Post-emergence action at 320 g/ha against ECHCG in % (ECHCG) [%] | Post-emergence action against AMARE (AMARE [3]) [%] | pest or weed control at 320 g/ha (POLCO) [%] | Pre-emergence action against DIGSA (DIGSA [4]) [%] | Post-emergence action against STEME (STEME) [%] | Post-emergence action against VERPE (VERPE) [%] | Post-emergence action against AVEFA in % (AVEFA) [%] | Post-emergence action against SETVI (SETVI) [%] | Post-emergence action against AMARE in % (AMARE [1]) [%] | Post-emergence action at 320 g/ha against DIGSA in % (DIGSA [2]) [%] | Pre-emergence action against LOLRI (LOLRI) [%] | Post-emergence action against POLCO in % (POLCO) [%] | Pre-emergence action against KCHSC (KCHSC [5]) [%] | Post-emergence action against KCHSC (KCHSC [6]) [%] | Pre-emergence action against ABUTH (ABUTH) [%]
C=CCNC(=O)COc1nn(-c2ccccc2F)c(-c2ccc(F)nc2)c1Br [Example X-001, N-Allyl-2-{[4-bromo-1-(2-fluorophenyl)-5-(6-fluoropyridin-3-yl)-1H-pyrazol-3-yl]oxy}acetamide] | 100 | 90 | 80 | 80 | 100 | 80 | 90 | 80 | 100 |  |  |  |  |  |  |  |  |  |  | 
COC(=O)CNC(=O)COc1nn(-c2ccccc2F)c(-c2ccc(F)nc2)c1Br [Example X-002] |  |  |  |  |  | 100 | 90 |  | 100 | 90 | 90 | 100 | 100 | 100 | 100 | 100 | 90 |  |  | 
CS(=O)(=O)NC(=O)COc1nn(-c2ccccc2F)c(-c2ccc(F)nc2)c1Br [Example X-004] |  |  |  |  |  | 90 | 100 |  | 90 | 100 | 100 | 90 | 90 | 90 | 90 | 100 | 80 |  |  | 
CN(C)S(=O)(=O)NC(=O)COc1nn(-c2ccccc2F)c(-c2ccc(F)nc2)c1Br [Example X-005] |  |  |  |  |  | 80 | 100 |  | 100 | 90 | 100 | 90 | 90 | 80 | 90 | 100 | 80 | 90 |  | 
COC(=O)[C@@H](C)Oc1nn(-c2ccccc2F)c(-c2cncnc2)c1Br [VI-011, Methyl (2R)-2-{[4-bromo-1-(2-fluorophenyl)-5-(pyrimidin-5-yl)-1H-pyrazol-3-yl]oxy}propanoate] |  | 90 | 80 | 90 | 100 |  |  | 80 | 100 | 100 |  |  | 100 |  |  |  |  | 100 | 90 | 90
COC(=O)[C@@H](C)Oc1nn(-c2ccccc2)c(-c2cccnc2)c1Br [VII-008] |  |  |  |  |  | 90 | 90 |  | 100 | 100 | 100 | 90 | 90 | 90 | 80 | 100 |  | 90 | 90 | 90
CCOC(=O)COc1nn(-c2ccccc2F)c(-c2ccc(F)nc2)c1C(F)(F)F [VII-010] |  |  |  |  |  | 90 |  |  | 100 | 100 | 90 | 100 | 90 | 90 | 90 | 100 | 80 |  |  | 100
COC(=O)C(C)Oc1nn(-c2ccccc2)c(-c2ccc(F)nc2)c1Br (stereo not drawn) [VII-014] |  |  |  |  |  | 80 | 90 |  | 100 | 90 | 90 | 90 |  | 90 | 80 | 100 | 80 | 100 |  | 
COC(=O)COc1nn(-c2ccccc2)c(-c2ccc(F)nc2)c1Br [VII-018] |  |  |  |  |  |  |  |  | 100 | 100 | 90 | 80 | 100 | 90 |  | 100 | 90 | 90 | 90 | 90
COC(=O)C(C)Oc1nn(-c2ccccc2)c(-c2ccc(F)nc2)c1Br (stereo not drawn) [VII-026] |  |  |  |  |  |  | 90 |  | 100 | 100 | 100 | 80 |  | 90 | 90 | 90 | 90 | 100 | 90 | 90
COC(=O)COc1nn(-c2ccccc2F)c(-c2ccc(F)nc2)c1F [VII-040] |  |  |  |  |  | 80 | 90 |  | 100 | 100 | 100 | 90 | 90 | 90 |  | 100 | 90 |  | 90 | 
COC(=O)[C@@H](C)Oc1nn(-c2cc(F)ccc2F)c(-c2cncc(F)c2)c1Br [VII-132] |  |  |  |  |  | 80 | 100 |  | 100 |  | 90 | 80 | 90 | 90 | 90 | 100 |  | 100 | 100 | 90
CCOC(=O)COc1nn(-c2ccccc2F)c(-c2ccnc(F)c2)c1Br [VIII-003, Ethyl {[4-bromo-1-(2-fluorophenyl)-5-(2-fluoropyridin-4-yl)-1H-pyrazol-3-yl]oxy}acetate] | 90 | 90 |  | 80 | 90 | 80 | 90 | 80 |  | 100 |  |  | 100 |  |  |  |  |  |  | 
COC(=O)[C@@H](C)Oc1nn(-c2ccccc2F)c(-c2ccnc(F)c2)c1Br [VIII-006] |  |  |  |  |  | 90 | 100 |  | 100 | 100 | 90 | 80 | 90 | 80 |  | 100 |  | 100 | 90 | 90
